Source: patent US5091169A, “Dipyridoxyl phosphate NMRI contrast agent compositions” (priority 1989, dated 1992)
Like-named read-outs stand apart in the source and are kept apart here.

Assays:
selected body organs [1] = conditions: for T1, Bile / T1, Heart / T1, Liver / T1, Renal cortex / T1, Renal medulla: 0.01 mmol/kg i.v., 10 MHz
Method: Each of seven rabbits was injected intravenously with 0.01 mmol/kg of the solution obtained in Example 7. The rabbits were sacrificed at 0.25, 0.50, 1.0, 2.0, 4, 6 and 24 hours post-injection, and the proton relation values of selected body organs were measured with NMR, in vitro, at 10 MHz.

selected body organs [2] = conditions: 30 min, 10 MHz
Method: Each of four rabbits was injected intravenously with one of the following amounts of the solution obtained in Example 7: 0.01 mmoles/kg, 0.05 mmoles/kg, 0.10 mmoles/kg and 0.20 mmoles/kg. The rabbits were sacrificed 30 min post injection, and the proton relaxation values of selected body organs were measured with NMR, in vitro at 10 MHz.

Cc1ncc(COP(=O)(O)O)c(CN(CCN(CC(=O)[O-])Cc2c(COP(=O)(O)O)cnc(C)c2O)CC(=O)[O-])c1O.[Mn+2] [Mn(DPDP), manganese chelate complex of N,N'-bis-(pyridoxal-5-phosphate)ethylenediamine-N,N'-diacetic acid]
collection in extravascular space (blood-brain barrier; defect in blood-brain barrier): large amounts of the complex of Mn(DPDP) collect in the extravascular space
observation of blood-brain barrier defects by NMRI (blood-brain barrier; not observable without Mn(DPDP) as contrast agent): such defects were observed by NMRI tomography
T1, Bile (selected body organs [1]; 0.25 hr): 160 ms
T1, Heart (selected body organs [1]; 0.25 hr): 231 ms
T1, Liver (selected body organs [1]; 0.25 hr): 68 ms
T1, Renal cortex (selected body organs [1]; 0.25 hr): 202 ms
T1, Renal medulla (selected body organs [1]; 0.25 hr): 192 ms
T1, Bile (selected body organs [1]; 0.50 hr): 46 ms
T1, Heart (selected body organs [1]; 0.50 hr): 352 ms
T1, Liver (selected body organs [1]; 0.50 hr): 76 ms
T1, Renal cortex (selected body organs [1]; 0.50 hr): 191 ms
T1, Renal medulla (selected body organs [1]; 0.50 hr): 231 ms
T1, Bile (selected body organs [1]; 1.0 hr): 25 ms
T1, Heart (selected body organs [1]; 1.0 hr): 381 ms
T1, Liver (selected body organs [1]; 1.0 hr): 48 ms
T1, Renal cortex (selected body organs [1]; 1.0 hr): 229 ms
T1, Renal medulla (selected body organs [1]; 1.0 hr): 236 ms
T1, Bile (selected body organs [1]; 2 hr): 21 ms
T1, Heart (selected body organs [1]; 2 hr): 507 ms
T1, Liver (selected body organs [1]; 2 hr): 48 ms
T1, Renal cortex (selected body organs [1]; 2 hr): 192 ms
T1, Renal medulla (selected body organs [1]; 2 hr): 310 ms
T1, Bile (selected body organs [1]; 4 hr): < 1 ms
T1, Heart (selected body organs [1]; 4 hr): 522 ms
T1, Liver (selected body organs [1]; 4 hr): 145 ms
T1, Renal cortex (selected body organs [1]; 4 hr): 210 ms
T1, Renal medulla (selected body organs [1]; 4 hr): 340 ms
T1, Bile (selected body organs [1]; 6 hr): 14 ms
T1, Heart (selected body organs [1]; 6 hr): 663 ms
T1, Liver (selected body organs [1]; 6 hr): 209 ms
T1, Renal cortex (selected body organs [1]; 6 hr): 239 ms
T1, Renal medulla (selected body organs [1]; 6 hr): 375 ms
T1, Bile (selected body organs [1]; 24 hr): 107 ms
T1, Heart (selected body organs [1]; 24 hr): 660 ms
T1, Liver (selected body organs [1]; 24 hr): 315 ms
T1, Renal cortex (selected body organs [1]; 24 hr): 328 ms
T1, Renal medulla (selected body organs [1]; 24 hr): 563 ms
uptake and clearance (selected body organs [1]; liver, renal cortex, renal medulla and heart): rapid uptake and clearance of Mn(DPDP) in the liver, renal cortex, renal medulla and heart
clearance time through renal and hepatobiliary systems (selected body organs [1]; post-injection, i.v.): 6 to 8 h
T1, Blood (selected body organs [2]; 0.01 mmol/kg i.v.): 844 ms
T1, Brain (selected body organs [2]; 0.01 mmol/kg i.v.): 554 ms
T1, Large Int. (selected body organs [2]; 0.01 mmol/kg i.v.): 283 ms
T1, Liver (selected body organs [2]; 0.01 mmol/kg i.v.): 176 ms
T1, Renal Cort. (selected body organs [2]; 0.01 mmol/kg i.v.): 298 ms
T1, Renal Med. (selected body organs [2]; 0.01 mmol/kg i.v.): 502 ms
T1, Small Int. (selected body organs [2]; 0.01 mmol/kg i.v.): 324 ms
T1, Urine (selected body organs [2]; 0.01 mmol/kg i.v.): 821 ms
T2, Brain (selected body organs [2]; 0.01 mmol/kg i.v.): 76 ms
T2, Large Int. (selected body organs [2]; 0.01 mmol/kg i.v.): 64 ms
T2, Liver (selected body organs [2]; 0.01 mmol/kg i.v.): 39 ms
T2, Renal Cort. (selected body organs [2]; 0.01 mmol/kg i.v.): 65 ms
T2, Renal Med. (selected body organs [2]; 0.01 mmol/kg i.v.): 99 ms
T2, Small Int. (selected body organs [2]; 0.01 mmol/kg i.v.): 72 ms
T1, Blood (selected body organs [2]; 0.05 mmol/kg i.v.): 613 ms
T1, Brain (selected body organs [2]; 0.05 mmol/kg i.v.): 496 ms
T1, Fat (selected body organs [2]; 0.05 mmol/kg i.v.): 200 ms
T1, Heart (selected body organs [2]; 0.05 mmol/kg i.v.): 353 ms
T1, Large Int. (selected body organs [2]; 0.05 mmol/kg i.v.): 365 ms
T1, Liver (selected body organs [2]; 0.05 mmol/kg i.v.): 76 ms
T1, Lung (selected body organs [2]; 0.05 mmol/kg i.v.): 575 ms
T1, Renal Cort. (selected body organs [2]; 0.05 mmol/kg i.v.): 210 ms
T1, Renal Med. (selected body organs [2]; 0.05 mmol/kg i.v.): 223 ms
T1, Skel. Musc. (selected body organs [2]; 0.05 mmol/kg i.v.): 494 ms
T1, Small Int. (selected body organs [2]; 0.05 mmol/kg i.v.): 237 ms
T1, Stom. (selected body organs [2]; 0.05 mmol/kg i.v.): 245 ms
T1, Urine (selected body organs [2]; 0.05 mmol/kg i.v.): 150 ms
T2, Brain (selected body organs [2]; 0.05 mmol/kg i.v.): 82 ms
T2, Fat (selected body organs [2]; 0.05 mmol/kg i.v.): 139 ms
T2, Heart (selected body organs [2]; 0.05 mmol/kg i.v.): 54 ms
T2, Large Int. (selected body organs [2]; 0.05 mmol/kg i.v.): 83 ms
T2, Liver (selected body organs [2]; 0.05 mmol/kg i.v.): 31 ms
T2, Lung (selected body organs [2]; 0.05 mmol/kg i.v.): 113 ms
T2, Renal Cort. (selected body organs [2]; 0.05 mmol/kg i.v.): 57 ms
T2, Renal Med. (selected body organs [2]; 0.05 mmol/kg i.v.): 57 ms
T2, Skel. Musc. (selected body organs [2]; 0.05 mmol/kg i.v.): 47 ms
T2, Small Int. (selected body organs [2]; 0.05 mmol/kg i.v.): 52 ms
